# Legend:
# Design in all cases: purchased Milipore (Millipore)
# [1] = molecular target: T1, Human adrenergic α2B receptor (Homo sapiens, UniProt P18089); assay: Radioligand binding, adrenergic α2B (Protocol Group B); settings: Protocol Group B; for Percentage inhibition of ligand binding, Adrenergic α2B (10 nM): 0.01 µM; for Percentage inhibition of ligand binding, Adrenergic α2B (30 nM): 30 nM compound, 0.03 µM; for Percentage inhibition of ligand binding, Adrenergic α2B (0.1 μM): 0.1 μM compound
# T1 sequence (P18089 1-450): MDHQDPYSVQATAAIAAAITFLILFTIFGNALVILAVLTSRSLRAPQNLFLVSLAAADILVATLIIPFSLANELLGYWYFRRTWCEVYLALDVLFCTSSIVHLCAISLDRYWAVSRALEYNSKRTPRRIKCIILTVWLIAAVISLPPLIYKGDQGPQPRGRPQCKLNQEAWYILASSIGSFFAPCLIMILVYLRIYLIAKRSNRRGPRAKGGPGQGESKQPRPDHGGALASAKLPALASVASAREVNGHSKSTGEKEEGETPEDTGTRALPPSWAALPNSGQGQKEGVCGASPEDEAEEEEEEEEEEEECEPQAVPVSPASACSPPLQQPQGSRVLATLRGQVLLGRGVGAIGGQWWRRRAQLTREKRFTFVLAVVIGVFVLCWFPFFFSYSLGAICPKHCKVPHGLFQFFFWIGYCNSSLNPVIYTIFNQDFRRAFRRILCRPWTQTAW
# In short: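 Recombinant human α2B receptor membranes incubated with compounds in 50 mM Tris-HCl pH 7.4, 5 mM MgCl2, 1 mM CaCl2, 0.2% BSA, 1% DMSO vehicle. Non-specific binding defined with 10 μM rauwolscine. Values are percent inhibition of specific binding or estimated Ki.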
# [2] = molecular target: T2, Human adrenergic α2A receptor (Homo sapiens, UniProt P08913); assay: Radioligand binding, adrenergic α2A (Protocol Group B); settings: Protocol Group B; for Percentage inhibition of ligand binding, Adrenergic α2A (0.3 μM): 0.3 μM compound
# T2 sequence (P08913 1-465): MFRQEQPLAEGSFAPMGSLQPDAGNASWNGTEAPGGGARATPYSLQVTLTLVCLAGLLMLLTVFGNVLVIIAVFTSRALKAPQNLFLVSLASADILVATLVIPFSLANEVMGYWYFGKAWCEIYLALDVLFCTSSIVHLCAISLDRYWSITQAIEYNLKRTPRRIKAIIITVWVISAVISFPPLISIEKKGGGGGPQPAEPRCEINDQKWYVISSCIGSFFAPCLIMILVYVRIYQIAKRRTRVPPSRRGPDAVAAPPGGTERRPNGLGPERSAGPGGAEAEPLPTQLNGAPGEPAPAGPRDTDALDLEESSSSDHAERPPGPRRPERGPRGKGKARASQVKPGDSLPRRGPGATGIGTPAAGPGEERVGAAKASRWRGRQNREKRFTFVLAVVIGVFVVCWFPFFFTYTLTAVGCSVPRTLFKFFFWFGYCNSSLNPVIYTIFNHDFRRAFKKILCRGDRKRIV
# In short: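 Membranes from recombinant cells expressing the receptor, in 50 mM Tris-HCl pH 7.4 with 5 mM MgCl2, 1 mM CaCl2, 0.2% BSA; compounds incubated with 2 nM [^3H]MK-912 for 60 min at 25° C. Nonspecific binding defined by 10 μM rauwolscine; filtration, counting; percent inhibition of specific binding, or estimated Ki.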
# [3] = molecular target: T3, Human adrenergic α1B receptor (Homo sapiens, UniProt P35368); assay: Radioligand binding, adrenergic α1B (Protocol Group B); settings: Protocol Group B; for Percentage inhibition of ligand binding, Adrenergic α1B (0.1 μM): 0.1 μM compound; for Percentage inhibition of ligand binding, Adrenergic α1B (0.3 μM): 0.3 μM compound
# T3 sequence (P35368 1-520): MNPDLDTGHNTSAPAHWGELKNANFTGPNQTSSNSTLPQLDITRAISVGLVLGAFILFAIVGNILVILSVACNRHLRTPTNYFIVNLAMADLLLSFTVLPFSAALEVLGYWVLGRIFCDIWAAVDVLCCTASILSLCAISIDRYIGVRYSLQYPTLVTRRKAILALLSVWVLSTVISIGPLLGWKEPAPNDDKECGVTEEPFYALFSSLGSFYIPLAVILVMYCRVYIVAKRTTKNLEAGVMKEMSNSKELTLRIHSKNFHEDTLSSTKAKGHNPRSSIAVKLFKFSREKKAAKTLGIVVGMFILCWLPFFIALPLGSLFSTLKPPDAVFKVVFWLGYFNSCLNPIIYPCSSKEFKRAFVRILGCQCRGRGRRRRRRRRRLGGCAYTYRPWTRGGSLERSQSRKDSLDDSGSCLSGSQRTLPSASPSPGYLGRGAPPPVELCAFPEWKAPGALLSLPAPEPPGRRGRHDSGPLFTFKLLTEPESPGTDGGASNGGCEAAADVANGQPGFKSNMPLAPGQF
# In short: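 Recombinant human α1B membranes incubated with test compound and 0.3 nM [3H]prazosin, 60 min at 25 °C, in 50 mM Tris-HCl pH 7.4, 10 mM MgCl2, 1 mM EDTA; nonspecific binding with 10 μM prazosin. Filter-bound radioactivity counted; values are % inhibition of specific binding or estimated Ki.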
Compound,"Percentage inhibition of ligand binding, Adrenergic α2B (10 nM) ([1]; 10 nM compound)","Percentage inhibition of ligand binding, Adrenergic α2B (30 nM) [1]","Percentage inhibition of ligand binding, Adrenergic α2B (0.1 μM) [1]","Percentage inhibition of ligand binding, Adrenergic α2A (0.1 μM) ([2]; 0.1 μM compound)","Percentage inhibition of ligand binding, Adrenergic α2A (0.3 μM) [2]","Percentage inhibition of ligand binding, Adrenergic α1B (0.1 μM) [3]","Percentage inhibition of ligand binding, Adrenergic α1B (0.3 μM) [3]","Ki ([1]; estimated Ki, read-out: Ki α2B)",Ki ([2]; estimated Ki),"inhibition at 0.01 µM ([1]; 10 nM compound, read-out: Percentage inhibition of ligand binding, Adrenergic α2B (10 nM))","inhibition at 0.1 µM ([2]; 0.1 μM compound, read-out: Percentage inhibition of ligand binding, Adrenergic α2A (0.1 μM))"
"CC(O)(Cn1c2c(c3cc(C(F)(F)F)ccc31)C1CCCN1CC2)c1cccnc1 (single isomer, unassigned) [64b]",15%,47%,76%,10%,37%,4%,27%,–,–,–,–
"Cc1cc(F)cc2c3c(n(CC(C)(O)c4cccnc4)c12)CCN1CCCC31 (single isomer, unassigned) [75c]",90%,96%,–,67%,84%,41%,69%,0.98 nM,24.5 nM,–,–
"Cc1cc(F)cc2c3c(n(CC(C)(O)c4cccnc4)c12)CC1CCCN1C3 (single isomer, unassigned) [76a]",12%,21%,53%,−3%,12%,−8%,11%,–,–,–,–
"Cc1cc(F)cc2c3c(n(CC(C)(O)c4cccnc4)c12)CC1CCCN1C3 (single isomer, unassigned) [76b]",11%,5%,20%,5%,0%,4%,3%,–,–,–,–
"Cc1cc(F)cc2c3c(n(CC(C)(O)c4cccnc4)c12)CC1CCCN1C3 (single isomer, unassigned) [76c]",−3%,−3%,–,19%,18%,19%,33%,–,–,–,–
"Cc1cc(F)cc2c3c(n(CC(C)(O)c4ccncc4)c12)CCN1CCCC31 (single isomer, unassigned) [77a]",–,30%,–,–,19%,7%,32%,–,–,12%,3%
"Cc1cc(F)cc2c3c(n(CC(C)(O)c4ccncc4)c12)CCN1CCCC31 (single isomer, unassigned) [77b]",6%,12%,–,5%,9%,−3%,14%,–,–,–,–
"Cc1cc(F)cc2c3c(n(CC(C)(O)c4ccncc4)c12)CC1CCCN1C3 (single isomer, unassigned) [78a]",−1%,−1%,5%,−11%,−7%,2%,12%,–,–,–,–
"Cc1cc(F)cc2c3c(n(CC(C)(O)c4ccncc4)c12)CC1CCCN1C3 (single isomer, unassigned) [78b]",0%,7%,22%,−7%,8%,2%,12%,–,–,–,–
"Cc1cc(F)cc2c3c(n(CC(C)(O)c4ccncc4)c12)CC1CCCN1C3 (single isomer, unassigned) [78c]",20%,33%,–,3%,−1%,−11%,−2%,–,–,–,–
"Cc1cc(F)cc2c3c(n(CC(C)(O)c4ccncc4)c12)CC1CCCN1C3 (single isomer, unassigned) [78d]",1%,−3%,–,2%,−4%,1%,7%,–,–,–,–
"Cc1cc(F)c2c(c1)c1c(n2CC(C)(O)c2cccnc2)CCN2CCCC12 (single isomer, unassigned) [79c]",−6%,7%,–,−3%,−1%,1%,6%,–,–,–,–

# From US20150315188A1, “COMPOUNDS AND METHODS FOR TREATMENT OF HYPERTENSION” (MEDIVATION TECHNOLOGIES, INC., priority 2012, published 2015)
